Data from patent US20240409585A1, “MACROCYCLIC IMMUNOMODULATORS” (priority 2021, published 2024).
Numbered stars: 1 amine (or outer) side, 2 acyl side, 3 side chain; on linkers, the order of the positions; unused ones are H or OH. Bridge positions count the residues as written; N and C are the ends. Square brackets hold non-standard residues; d marks the D form. Peptide text beside a SMILES is read from it. * marks the point of attachment. ξ: configuration not given here. Phe(3,4-F2) = N[C@@H](Cc1ccc(F)c(F)c1)C(=O)O; X27 = O=C([C@H](Cc1ccc2ncccc2c1)N[*:1])[*:2]; Bip = N[C@@H](Cc1ccc(-c2ccccc2)cc1)C(=O)O; Phe(2-CN) = N#Cc1ccccc1C[C@H](N)C(=O)O; Phe(3-Me) = Cc1cccc(C[C@H](N)C(=O)O)c1; Val(3-OH) = CC(C)(O)[C@H](N)C(=O)O; aIle = CC[C@@H](C)[C@H](N)C(=O)O; 4Pal = N[C@@H](Cc1ccncc1)C(=O)O; Cha = N[C@@H](CC1CCCCC1)C(=O)O; Cit = NC(=O)NCCC[C@H](N)C(=O)O; Ile(3ξ) = CCC(C)[C@H](N)C(=O)O; Thr(3ξ) = CC(O)[C@H](N)C(=O)O; Carboxymethyl = O=C(O)C*; NMeA = CN[C@@H](C)C(=O)O; Orn = NCCC[C@H](N)C(=O)O; Pra = C#CC[C@H](N)C(=O)O; Dab = NCC[C@H](N)C(=O)O; Nva = CCC[C@H](N)C(=O)O

Molecular target: T1, PE-labeled human PD-L1-Ig binding to Jurkat cell line over-expressing human PD-1 (Jurkat-PD-1) (Homo sapiens, UniProt Q15116)
T1 construct: expressed in transfected cells; host or cells: Jurkat
Experiment: Jurkat-PD-1 Cell Binding High-Content Screening Assay (CBA): Method 1
Conditions: Jurkat-hPD-1 cells, PE-labeled PD-L1-Ig 20 nM final; read-out: Jurkat HPDL1 PD1 IC50 (uM) (Method 1)

T1 sequence (Q15116 25-288): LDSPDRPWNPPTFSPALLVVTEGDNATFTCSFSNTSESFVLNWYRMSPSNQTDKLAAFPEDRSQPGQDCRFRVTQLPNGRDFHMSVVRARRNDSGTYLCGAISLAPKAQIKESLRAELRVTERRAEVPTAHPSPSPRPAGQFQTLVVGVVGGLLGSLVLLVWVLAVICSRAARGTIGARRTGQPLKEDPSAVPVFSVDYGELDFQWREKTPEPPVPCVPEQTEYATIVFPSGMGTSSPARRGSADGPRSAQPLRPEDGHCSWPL

IC50 [µM] | SMILES
0.02 | CCC(C)[C@@H]1NC(=O)[C@H](Cc2ccc(-c3ccccc3)cc2)NC(=O)[C@H](C(C)C)NC(=O)[C@H](Cc2c[nH]c3ccccc23)NC(=O)[C@H](CC(=O)O)NC(=O)[C@H](Cc2ccc(OCC(=O)O)cc2)NC(=O)[C@H](C(C)O)NC(=O)CSC[C@@H](C(=O)N[C@@H](CCCN)C(N)=O)NC(=O)[C@H](C(C)O)NC(=O)[C@H](C(C)C)NC(=O)[C@H](CC2CCCCC2)NC(=O)[C@H](CCN)NC(=O)[C@@H](CC(C)C)NC(=O)[C@H](C)N(C)C1=O (stereo partly drawn) [Compound 2153] ({CH2CO}-[Thr(3ξ)]Y(Carboxymethyl)DWV[Bip][Ile(3ξ)][NMeA][dL][Dab][Cha]V[Thr(3ξ)]C[Orn]-NH2; thioether N-14)
0.07 | CC[C@@H](C)[C@@H]1NC(=O)[C@H](Cc2ccc(-c3ccccc3)cc2)NC(=O)[C@H](CC(C)C)NC(=O)[C@H](Cc2cccc(C)c2)NC(=O)[C@H](CC(=O)O)NC(=O)[C@H](Cc2ccncc2)NC(=O)[C@H](Cc2ccc(OCC(=O)O)cc2)NC(=O)CSC[C@@H](C(N)=O)NC(=O)[C@H](CO)NC(=O)[C@H](C(C)C)NC(=O)[C@H](CC(C)C)NC(=O)[C@H](CC(N)=O)NC(=O)[C@@H](CC(C)C)NC(=O)[C@H](C)N(C)C1=O [Compound 1638] ({CH2CO}-Y(Carboxymethyl)[4Pal]D[Phe(3-Me)]L[Bip][aIle][NMeA][dL]NLVSC-NH2; thioether N-14)
0.08 | CC(C)C[C@@H]1NC(=O)[C@H](CCCN)NC(=O)[C@@H](CC(C)C)NC(=O)[C@H](C)N(C)C(=O)[C@H](CCC(=O)O)NC(=O)[C@H](Cc2ccc(-c3ccccc3)cc2)NC(=O)[C@H](C(C)C)NC(=O)[C@H](Cc2c[nH]c3ccccc23)NC(=O)[C@H](CC(=O)O)NC(=O)[C@H](Cc2ccc(O)cc2)NC(=O)[C@H](CC(N)=O)NC(=O)CSC[C@@H](C(=O)N[C@@H](C)C(N)=O)NC(=O)[C@H]([C@@H](C)O)NC(=O)[C@H](C(C)C)NC1=O [Compound 1239] ({CH2CO}-NYDWV[Bip]E[NMeA][dL][Orn]LVTCA-NH2; thioether N-14)
0.16 | CC(C)C[C@@H]1NC(=O)[C@H](CCCNC(=N)N)NC(=O)[C@H](Cc2ccc(F)c(F)c2)NC(=O)[C@H](C)N(C)C(=O)[C@H](CCCNC(=N)N)NC(=O)[C@H](Cc2ccc(-c3ccccc3)cc2)NC(=O)[C@H](C(C)C)NC(=O)[C@H](Cc2c[nH]c3ccccc23)NC(=O)[C@H](CC(=O)O)NC(=O)[C@H](Cc2ccc(O)cc2)NC(=O)[C@H](Cc2ccccc2)NC(=O)CSC[C@@H](C(=O)NCC(N)=O)NC(=O)[C@H](CO)NC(=O)[C@H](C(C)C)NC1=O [Compound 1015] ({CH2CO}-FYDWV[Bip]R[NMeA][Phe(3,4-F2)]RLVSCG-NH2; thioether N-14)
0.1 | Cc1cccc(C[C@@H]2NC(=O)[C@H](CC(=O)O)NC(=O)[C@H](Cc3ccc(OCC(=O)O)cc3)NC(=O)[C@H](Cc3ccncc3)NC(=O)CSC[C@@H](C(=O)N[C@H](CC(N)=O)C(N)=O)NC(=O)[C@H](CO)NC(=O)[C@H](C(C)(C)O)NC(=O)[C@H](CC3CCCCC3)NC(=O)[C@H](CCN)NC(=O)[C@@H](CC(C)C)NC(=O)[C@H](C)N(C)C(=O)[C@H](Cc3ccc(O)cc3)NC(=O)[C@H](Cc3ccc(-c4ccccc4)cc3)NC(=O)[C@H](Cc3ccc(O)cc3)NC2=O)c1 [Compound 2140] ({CH2CO}-[4Pal]Y(Carboxymethyl)D[Phe(3-Me)]Y[Bip]Y[NMeA][dL][Dab][Cha][Val(3-OH)]SC[dN]-NH2; thioether N-14)
0.04 | CC(C)C[C@@H]1NC(=O)[C@H](Cc2c[nH]c3ccccc23)NC(=O)[C@H](CC(=O)O)NC(=O)[C@H](Cc2ccc(O)cc2)NC(=O)[C@H](Cc2ccccc2)NC(=O)CSC[C@@H](C(=O)N[C@@H](C)C(N)=O)NC(=O)[C@H](CO)NC(=O)[C@H](C(C)C)NC(=O)[C@H](CC(C)C)NC(=O)[C@H](CC(N)=O)NC(=O)[C@@H](C(C)C)NC(=O)[C@H](C)N(C)C(=O)[C@H](C(C)C)NC(=O)[C@H](Cc2ccc(-c3ccccc3)cc2)NC1=O [Compound 1771] ({CH2CO}-FYDWL[Bip]V[NMeA][dV]NLVSCA-NH2; thioether N-14)
0.04 | CC(C)C[C@@H]1NC(=O)[C@H](CCN)NC(=O)[C@@H](CC(C)C)NC(=O)[C@H](C)N(C)C(=O)[C@H](CCCNC(N)=O)NC(=O)[C@H](Cc2ccc(-c3ccccc3)cc2)NC(=O)[C@H](C(C)C)NC(=O)[C@H](Cc2c[nH]c3ccccc23)NC(=O)[C@H](CC(=O)O)NC(=O)[C@H](Cc2ccc(O)cc2)NC(=O)[C@H](Cc2ccc3ncccc3c2)NC(=O)CSC[C@@H](C(=O)N[C@@H](C)C(N)=O)NC(=O)[C@H](C(C)O)NC(=O)[C@H](C(C)C)NC1=O (stereo partly drawn) [Compound 2036] ({CH2CO}-[X27]YDWV[Bip][Cit][NMeA][dL][Dab]LV[Thr(3ξ)]CA-NH2; thioether N-14)
0.05 | CC(C)C[C@@H]1NC(=O)[C@H](CCN)NC(=O)[C@@H](CC(C)C)NC(=O)[C@H](C)N(C)C(=O)[C@H](CCCNC(=N)N)NC(=O)[C@H](Cc2ccc(-c3ccccc3)cc2)NC(=O)[C@H](C(C)C)NC(=O)[C@H](Cc2c[nH]c3ccccc23)NC(=O)[C@H](CC(=O)O)NC(=O)[C@H](Cc2ccc(O)cc2)NC(=O)[C@H](Cc2ccccc2)NC(=O)CSC[C@@H](C(=O)N[C@@H](CO)C(N)=O)NC(=O)[C@H]([C@@H](C)O)NC(=O)[C@H](C(C)C)NC1=O [Compound 1178] ({CH2CO}-FYDWV[Bip]R[NMeA][dL][Dab]LVTCS-NH2; thioether N-14)
0.33 | CC(C)C[C@@H]1NC(=O)[C@H](CCN)NC(=O)[C@@H](CC(C)C)NC(=O)[C@H](C)N(C)C(=O)[C@H](CCCNC(=N)N)NC(=O)[C@H](Cc2ccc(-c3ccccc3)cc2)NC(=O)[C@H](C(C)C)NC(=O)[C@H](Cc2ccccc2C#N)NC(=O)[C@H](CC(=O)O)NC(=O)[C@H](Cc2ccc(O)cc2)NC(=O)[C@H](Cc2ccccc2)NC(=O)CSC[C@@H](C(=O)N[C@@H](C)C(N)=O)NC(=O)[C@H]([C@@H](C)O)NC(=O)[C@H](C(C)C)NC1=O [Compound 1204] ({CH2CO}-FYD[Phe(2-CN)]V[Bip]R[NMeA][dL][Dab]LVTCA-NH2; thioether N-14)
0.03 | CC(C)C[C@@H]1NC(=O)[C@H](CCN)NC(=O)[C@@H](CC(C)C)NC(=O)[C@H](C)N(C)C(=O)[C@H](CCCN)NC(=O)[C@H](Cc2ccc(-c3ccccc3)cc2)NC(=O)[C@H](C(C)C)NC(=O)[C@H](Cc2c[nH]c3ccccc23)NC(=O)[C@H](CC(=O)O)NC(=O)[C@H](Cc2ccc(O)cc2)NC(=O)[C@H](Cc2ccncc2)NC(=O)CSC[C@@H](C(=O)N[C@@H](C)C(N)=O)NC(=O)[C@H](C(C)O)NC(=O)[C@H](C(C)C)NC1=O (stereo partly drawn) [Compound 2081] ({CH2CO}-[4Pal]YDWV[Bip][Orn][NMeA][dL][Dab]LV[Thr(3ξ)]CA-NH2; thioether N-14)
0.06 | CC(C)C[C@@H]1NC(=O)[C@H](CCCNC(=N)N)NC(=O)[C@@H](CC(C)C)NC(=O)[C@H](C)N(C)C(=O)[C@H](CCCNC(=N)N)NC(=O)[C@H](Cc2ccc(-c3ccccc3)cc2)NC(=O)[C@H](C(C)C)NC(=O)[C@H](Cc2c[nH]c3ccccc23)NC(=O)[C@H](CC(=O)O)NC(=O)[C@H](Cc2ccc(O)cc2)NC(=O)[C@H](Cc2ccccc2)NC(=O)CSC[C@@H](C(=O)N[C@@H](C)C(N)=O)NC(=O)[C@H]([C@@H](C)O)NC(=O)[C@H](C(C)C)NC1=O [Compound 1048] ({CH2CO}-FYDWV[Bip]R[NMeA][dL]RLVTCA-NH2; thioether N-14)
0.14 | CCC[C@@H]1NC(=O)[C@H](CCCNC(=N)N)NC(=O)[C@@H](CC(C)C)NC(=O)[C@H](C)N(C)C(=O)[C@H](CCCNC(=N)N)NC(=O)[C@H](Cc2ccc(-c3ccccc3)cc2)NC(=O)[C@H](C(C)C)NC(=O)[C@H](Cc2c[nH]c3ccccc23)NC(=O)[C@H](CC(=O)O)NC(=O)[C@H](Cc2ccc(O)cc2)NC(=O)[C@H](Cc2ccccc2)NC(=O)CSC[C@@H](C(=O)N[C@@H](C)C(N)=O)NC(=O)[C@H]([C@@H](C)O)NC(=O)[C@H](C(C)C)NC1=O [Compound 1113] ({CH2CO}-FYDWV[Bip]R[NMeA][dL]R[Nva]VTCA-NH2; thioether N-14)
0.15 | CSCC[C@H]1NC(=O)[C@H](C)N(C)C(=O)[C@H](CCCNC(=N)N)NC(=O)[C@H](Cc2ccc(-c3ccccc3)cc2)NC(=O)[C@H](C(C)C)NC(=O)[C@H](Cc2c[nH]c3ccccc23)NC(=O)[C@H](CC(=O)O)NC(=O)[C@H](Cc2ccc(O)cc2)NC(=O)[C@H](Cc2ccccc2)NC(=O)CSC[C@@H](C(=O)N[C@@H](C)C(N)=O)NC(=O)[C@H]([C@@H](C)O)NC(=O)[C@H](C(C)C)NC(=O)[C@H](CC(C)C)NC(=O)[C@H](CCCNC(=N)N)NC1=O [Compound 1062] ({CH2CO}-FYDWV[Bip]R[NMeA][dM]RLVTCA-NH2; thioether N-14)
0.03 | Cc1cccc(C[C@@H]2NC(=O)[C@H](CC(=O)O)NC(=O)[C@H](Cc3ccc(O)cc3)NC(=O)[C@H](CC(N)=O)NC(=O)CSC[C@@H](C(=O)N[C@@H](C)C(N)=O)NC(=O)[C@H]([C@@H](C)O)NC(=O)[C@H](C(C)C)NC(=O)[C@H](CC(C)C)NC(=O)[C@H](CCCNC(=N)N)NC(=O)[C@@H](CC(C)C)NC(=O)[C@H](C)N(C)C(=O)[C@H](CCCNC(=N)N)NC(=O)[C@H](Cc3ccc(-c4ccccc4)cc3)NC(=O)[C@H](C(C)C)NC2=O)c1 [Compound 1192] ({CH2CO}-NYD[Phe(3-Me)]V[Bip]R[NMeA][dL]RLVTCA-NH2; thioether N-14)
0.07 | C#CC[C@H](NC(=O)[C@H](CCN)NC(=O)[C@@H]1CSCC(=O)N[C@@H]([C@@H](C)O)C(=O)N[C@@H](Cc2ccc(OCC(=O)O)cc2)C(=O)N[C@@H](CC(=O)O)C(=O)N[C@@H](Cc2cccc(C)c2)C(=O)N[C@@H](Cc2ccc(OCC(=O)O)cc2)C(=O)N[C@@H](Cc2ccc(-c3ccccc3)cc2)C(=O)N[C@@H](Cc2ccc(OCC(=O)O)cc2)C(=O)N(C)[C@@H](C)C(=O)N[C@H](CC(C)C)C(=O)N[C@@H](CCN)C(=O)N[C@@H](CC2CCCCC2)C(=O)N[C@@H](C(C)(C)O)C(=O)N[C@@H](CCC(=O)O)C(=O)N1)C(=O)O [Compound 1937] ({CH2CO}-TY(Carboxymethyl)D[Phe(3-Me)]Y(Carboxymethyl)[Bip]Y(Carboxymethyl)[NMeA][dL][Dab][Cha][Val(3-OH)]EC[Dab][Pra]-OH; thioether N-14)
